pIC50, pKi: −log10 of the molar value.
Tests used:
[1] = Half life in mouse plasma measured for 5 to 60 mins by HPLC/MS/MS analysis; format: ADME, cell-free; details: time 5-60 min
[2] = in vivo; details: mouse, brain and plasma
[3] = target: T1, Protein deacetylase HDAC6 (Homo sapiens, UniProt Q9UBN7); experiment: Inhibition of HDAC6 in human HeLa cells measured after 2 hrs by Western blot analysis; format: cell-based
T1 sequence (Q9UBN7 whole entry): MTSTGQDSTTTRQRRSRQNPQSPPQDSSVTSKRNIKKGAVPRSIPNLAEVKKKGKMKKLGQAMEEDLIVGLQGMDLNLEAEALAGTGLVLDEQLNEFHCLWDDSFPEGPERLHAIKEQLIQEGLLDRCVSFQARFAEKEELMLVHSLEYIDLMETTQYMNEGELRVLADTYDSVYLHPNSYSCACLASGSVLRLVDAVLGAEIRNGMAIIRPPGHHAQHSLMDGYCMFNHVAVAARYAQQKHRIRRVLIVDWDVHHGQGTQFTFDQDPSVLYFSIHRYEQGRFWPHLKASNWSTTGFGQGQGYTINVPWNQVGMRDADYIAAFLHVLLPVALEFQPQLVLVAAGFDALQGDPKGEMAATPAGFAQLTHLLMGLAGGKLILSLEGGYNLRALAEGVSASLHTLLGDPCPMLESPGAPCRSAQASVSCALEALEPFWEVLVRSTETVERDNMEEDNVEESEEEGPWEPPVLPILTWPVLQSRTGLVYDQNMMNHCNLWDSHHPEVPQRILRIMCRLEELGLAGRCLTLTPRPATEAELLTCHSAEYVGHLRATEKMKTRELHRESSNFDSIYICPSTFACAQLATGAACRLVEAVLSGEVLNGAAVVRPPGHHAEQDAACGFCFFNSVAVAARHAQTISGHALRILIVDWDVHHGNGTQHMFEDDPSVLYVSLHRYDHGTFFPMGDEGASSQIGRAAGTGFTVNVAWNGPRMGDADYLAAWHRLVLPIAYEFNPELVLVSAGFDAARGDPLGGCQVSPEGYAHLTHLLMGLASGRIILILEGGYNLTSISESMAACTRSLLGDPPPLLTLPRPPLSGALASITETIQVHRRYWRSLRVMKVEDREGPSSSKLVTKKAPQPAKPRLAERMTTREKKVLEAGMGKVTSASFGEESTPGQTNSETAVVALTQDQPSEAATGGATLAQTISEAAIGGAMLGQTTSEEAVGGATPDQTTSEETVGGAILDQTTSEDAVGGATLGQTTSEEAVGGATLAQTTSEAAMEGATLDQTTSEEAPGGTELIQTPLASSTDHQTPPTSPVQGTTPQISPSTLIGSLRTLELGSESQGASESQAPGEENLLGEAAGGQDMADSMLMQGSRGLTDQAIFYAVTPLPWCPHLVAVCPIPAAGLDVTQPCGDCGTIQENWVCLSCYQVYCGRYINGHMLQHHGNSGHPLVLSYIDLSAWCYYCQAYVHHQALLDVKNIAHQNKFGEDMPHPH

[4] = target: Glutamate [NMDA] receptor; experiment: Binding affinity to NMDAR (unknown origin) assessed as inhibition constant by [3H]MK-801 binding assay; format: protein-complex assay, Homo sapiens
[5] = target: T1, Protein deacetylase HDAC6; experiment: Inhibition of HDAC6 (unknown origin) by microtiter plate reader analysis
[6] = target: High affinity cGMP-specific 3',5'-cyclic phosphodiesterase 9A (Homo sapiens, UniProt O76083); experiment: Inhibition of PDE9 in human SH-SY5Y cells measured after 2 hrs by Western blot analysis; format: cell-based
[7] = target: T1, Protein deacetylase HDAC6; experiment: Inhibition of HDAC6 in human SH-SY5Y cells measured after 2 hrs by Western blot analysis; format: cell-based

High affinity cGMP-specific 3',5'-cyclic phosphodiesterase 9A, sequence (O76083 whole entry): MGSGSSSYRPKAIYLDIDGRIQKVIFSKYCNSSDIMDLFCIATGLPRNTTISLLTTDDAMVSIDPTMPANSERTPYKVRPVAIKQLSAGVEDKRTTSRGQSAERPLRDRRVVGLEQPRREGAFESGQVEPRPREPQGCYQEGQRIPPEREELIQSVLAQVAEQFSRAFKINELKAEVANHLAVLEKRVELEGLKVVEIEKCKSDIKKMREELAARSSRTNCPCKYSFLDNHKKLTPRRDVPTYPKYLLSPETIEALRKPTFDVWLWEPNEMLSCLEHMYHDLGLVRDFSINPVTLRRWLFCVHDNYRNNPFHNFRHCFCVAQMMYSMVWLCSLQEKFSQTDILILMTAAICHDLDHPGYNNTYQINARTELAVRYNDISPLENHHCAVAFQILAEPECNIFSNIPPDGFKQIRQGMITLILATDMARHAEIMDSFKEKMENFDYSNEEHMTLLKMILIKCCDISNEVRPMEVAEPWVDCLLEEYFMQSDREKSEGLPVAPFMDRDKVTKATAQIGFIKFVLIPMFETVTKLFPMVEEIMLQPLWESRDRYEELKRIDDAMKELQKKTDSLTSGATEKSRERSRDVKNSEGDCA

O=C(NO)c1cnc(NC2(c3ccccc3)CC2)nc1
half-life [1]: 12 min

O=C(NO)c1cnc(NC2(c3cccc(F)c3)CCCCC2)nc1
half-life [1]: 30 min
Kp [2]: 1.26

CC12CC3CC(C)(C1)CC(NC(=O)/C=C/c1ccc(C(=O)NO)cc1)(C3)C2
pIC50 [3]: 6.74
pKi [4]: 6.23

CCN(CC)c1ccc(C(=O)NCCCCCCC(=O)NO)cc1
pIC50 [5]: 11.02

C[C@@H]1CN(Cc2ccc(C(=O)NO)cc2)C[C@H]1c1nc2c(cnn2C2CCCC2)c(=O)[nH]1
pIC50 [6]: 7.40
pIC50 [7]: 6.97

CN1CCc2c(c3ccccc3n2Cc2ccc(C(=O)NO)cc2)C1 [TUBASTATIN A]
Kp [2]: 1.22

— ChEMBL document CHEMBL5150006, “Inhibition of Histone Deacetylase 6 (HDAC6) as a therapeutic strategy for Alzheimer's disease: A review (2010-2020)” (Eur J Med Chem, 2021)
